Literature values in patent publication US8715726B2 (Eurofarma Laboratories S.A., priority 2007, dated 2014).

Which results are given for COc1cccc(C2(O)CCCCC2CN(C)C)c1 (stereo not drawn) [Tramadol, 2-((dimethylamino)methyl)-1-(m-methoxyphenyl)-cyclohexanol]?
metabolism (in vivo): extensively metabolised in the liver; dose excreted in the form of metabolites (oral administration): 60%; dose excreted in the urine not having been metabolised (oral administration): Approximately 30%
